Test results: publication PMC8779140 (Pharmaceutics, 2022)
“Also recorded” adds a separate entry of the source. Read-outs that look alike come from different tables or passages of the source. *1 amine or outer side, *2 acyl side, *3 side chain or, on linkers, in order; H or OH if unused. Where a SMILES comes first, the peptide text is derived from it. Bridges are numbered along the chain shown (N, C = ends). Roman numbers before positions name the chains, in order. [ ]: non-standard residue; d: D form. Actinocin(9to1) = Cc1c2oc3c(C)ccc(C(=O)[*:1])c3nc-2c(C(=O)[*:2])c(N)c1=O; NMeV = CN[C@H](C(=O)O)C(C)C; Sar = CNCC(=O)O

What was measured:
SARS-CoV-2 = assay: Plaque reduction assay in Vero E6 cells; assay type: cell-based; conditions: 120 h
human TMPRSS2 = target: T1, human TMPRSS2 (Homo sapiens, UniProt O15393); assay: Inhibition assay of human TMPRSS2 (fluorogenic peptide); assay type: biochemical
T1 construct: the purified MBP-tagged TMPRSS2 (residues 256-492) activity; made in house; host or cells: E. coli BL21 (DE3)
Description: Cloning of TMPRSS2 was performed as previously reported. The synthetic gene encoding the catalytic domain of human TMPRSS2 (residues 256–492) was cloned into the pMAL-c5X vector (New England Biolabs). This plasmid was transformed into E. coli BL21 (DE3) for protein overexpression. Overnight culture of a single transformant (5 mL) was added to 500 mL of fresh LB medium containing […] ampicillin. The cells were grown to an OD600 of 0.6 and added with 1 mM isopropyl-β-thiogalactopyranoside for further 20 h incubation at 16 °C for recombinant protein production. The cells were harvested by centrifugation at 7000× g for 15 min.
Purification of the maltose-binding protein (MBP)-tagged TMPRSS2 was conducted at 4 °C. The cell paste obtained from the cell culture (1 L) was suspended in a lysis buffer (40 mL) containing 25 mM Tris-HCl (pH 7.5) and 150 mM NaCl. To disrupt the cells, a French press was used. The cell-free extract was loaded onto a 10 mL amylose resin column (New England Biolabs, Ipswich, MA, USA) equilibrated with the lysis buffer. The column was washed with 10 column volumes of lysis buffer, and then the MBP-tagged TMPRSS2 bound to the amylose resin was eluted with the elution buffer (25 mM Tris, pH 7.5, 150 mM NaCl, and 10 mM maltose).
For assaying the inhibition of the purified MBP-tagged TMPRSS2 (residues 256-492) activity, a fluorogenic peptide substrate, Boc-Gln-Ala-Arg-AMC, was used with excitation at 355 nm and emission at 460 nm. The enzyme (0.22 μM) was preincubated in the presence or absence of various concentrations of inhibitors in 20 mM HEPES and pH 7.5 assay buffer for 10 min in black 96-well immuno plates (Thermo Scientific). Next, the fluorescent substrate (10 μM) was added and incubated for 60 min at room temperature. The reactions were monitored by using a fluorescence plate reader (Fluoroskan Ascent, Thermo Labsystems, Franklin, MA, USA). The initial velocities of the inhibited reactions were plotted against the different inhibitor concentrations to yield the IC50 value by fitting with the equation A(I) = A(0) × {1 − [I/(I + IC50)]}. In this equation, A(I) is the enzyme activity with inhibitor concentration I, and A(0) is the enzyme activity without an inhibitor. For each data point, the measurements were repeated thrice to yield the mean and standard deviation.

SARS-CoV-2 PL^pro = target: T2, SARS-CoV-2 PL^pro (Severe acute respiratory syndrome coronavirus 2, UniProt P0DTD1); assay: biochemical
T2 construct: The synthetic gene of SARS-CoV-2 PL^pro was cloned into the pET16b vector; made in house; host or cells: E. coli BL21(DE3)

[1] = cited from earlier work
Vero E6 cells [2] = system: Vero E6 cells
SARS-CoV-2 3CL^pro = SARS-CoV-2 3CL^pro (Severe acute respiratory syndrome coronavirus 2, UniProt P0DTD1); assay: biochemical
Vero E6 cells [3] = assay: Cytotoxicity seen in the plaque reduction assay; conditions: Figure 7b, seen at 0.2 μM
[4] = target: spike RBD–ACE2 interaction (wild-type) (Severe acute respiratory syndrome coronavirus 2, UniProt P0DTC2); assay type: cell-based, SARS-CoV-2; conditions: RBD attachment assay
[5] = 0.22 μM MBP-tagged TMPRSS2 (residues 256-492), 10 μM Boc-Gln-Ala-Arg-AMC, read-out: IC50
[6] = 75 nM PL^pro, 10 μM z-Arg-Leu-Arg-Gly-Gly-AMC, pH 7.5, read-out: IC50

T1 sequence (O15393 256-492): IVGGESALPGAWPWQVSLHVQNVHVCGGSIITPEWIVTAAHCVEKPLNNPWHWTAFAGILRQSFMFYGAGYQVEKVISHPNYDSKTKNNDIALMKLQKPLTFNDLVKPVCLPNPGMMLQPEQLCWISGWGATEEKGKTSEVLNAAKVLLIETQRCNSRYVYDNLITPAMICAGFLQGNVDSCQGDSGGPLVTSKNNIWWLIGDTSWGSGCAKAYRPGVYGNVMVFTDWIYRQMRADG

SMILES: COc1cccc2c1C(=O)c1c(O)c3c(c(O)c1C2=O)C[C@@](O)(C(=O)CO)C[C@@H]3O[C@H]1C[C@H](N)[C@H](O)[C@H](C)O1 [Doxorubicin]
- antiviral activity in plaque reduction assay (SARS-CoV-2; 10 μM): did not effectively inhibit the replication and infection of the virus
- IC50 (human TMPRSS2; [5]): 8.2 ± 1.6 µM
- IC50 (SARS-CoV-2 PL^pro): 4.6 ± 0.8 µM

SMILES: CC/C(=C(\c1ccccc1)c1ccc(OCCN(C)C)cc1)c1ccccc1 [Tamoxifen]
- half-life [1]: 5 to 7 days
- antiviral activity in plaque reduction assay (SARS-CoV-2; 10 μM): robustly protected cells from the viral infection
- IC50 (human TMPRSS2): 21.4 ± 1.6 µM
- cytotoxicity (Vero E6 cells [2]): without apparent cytotoxicity

SMILES: O=C(Nc1ccc([N+](=O)[O-])cc1Cl)c1cc(Cl)ccc1O [Niclosamide]
- IC50 (SARS-CoV-2 3CL^pro): 18.7 ± 0.9 µM
- cytotoxicity (Vero E6 cells [3]): cells appeared broken into tiny particles, revealing the cytotoxicity; also recorded: high cytotoxicity
- antiviral activity in plaque reduction assay (SARS-CoV-2; 0.2 μM): demonstrated antiviral property
- IC50 (SARS-CoV-2 PL^pro): 16.6 ± 1.8 µM

SMILES: CN(C)C/C=C/C(=O)Nc1cc2c(Nc3ccc(F)c(Cl)c3)ncnc2cc1O[C@H]1CCOC1 [Afatinib]
- IC50 (human TMPRSS2): 28.4 ± 1.5 µM
- IC50 (SARS-CoV-2 PL^pro; [6]): 45.6 ± 4.2 µM

SMILES: CCOc1cc2ncc(C#N)c(Nc3ccc(OCc4ccccn4)c(Cl)c3)c2cc1NC(=O)/C=C/CN(C)C [Neratinib]
- IC50 (human TMPRSS2; [5]): 25.9 ± 3.2 µM
- IC50 (SARS-CoV-2 PL^pro; [6]): 11.6 ± 2.9 µM

SMILES: CCN(CC)CCCC(C)Nc1c2ccc(Cl)cc2nc2ccc(OC)cc12 (centres unmarked) [Mepacrine]
- IC50 (human TMPRSS2; [5]): 29.9 ± 3.7 µM
- IC50 (SARS-CoV-2 PL^pro): 4.4 ± 0.9 µM

SMILES: CO[C@H]1C[C@@H]2CC[C@@H](C)[C@@](O)(O2)C(=O)C(=O)N2CCCC[C@H]2C(=O)O[C@H]([C@H](C)C[C@@H]2CC[C@@H](O)[C@H](OC)C2)CC(=O)[C@H](C)/C=C(\C)[C@@H](O)[C@@H](OC)C(=O)[C@H](C)C[C@H](C)/C=C/C=C/C=C/1C [Rapamycin]
- antiviral activity in plaque reduction assay (SARS-CoV-2; 20 μM): did not exert a significant effect on the inhibition of viral infection
- inhibition of RBD–ACE2 interplay (in words) [4]: could not efficiently inhibit the interplay between the RBD and ACE2
- inhibition of TMPRSS2 (in words) (human TMPRSS2; IC50 threshold 50 μM): did not inhibit
- IC50 (SARS-CoV-2 PL^pro; [6]): 31 ± 2.4 µM

SMILES: Cc1c2oc3c(C)ccc(C(=O)N[C@@H]4C(=O)N[C@H](C(C)C)C(=O)N5CCC[C@H]5C(=O)N(C)CC(=O)N(C)[C@@H](C(C)C)C(=O)O[C@@H]4C)c3nc-2c(C(=O)N[C@@H]2C(=O)N[C@H](C(C)C)C(=O)N3CCC[C@H]3C(=O)N(C)CC(=O)N(C)[C@@H](C(C)C)C(=O)O[C@@H]2C)c(N)c1=O [Dactinomycin] (I: T[dV]P[Sar][NMeV] / II: T[dV]P[Sar][NMeV]; ester I:1-I:C, II:1-II:C; linker I:N-II:N via Actinocin(9to1))
- IC50 (SARS-CoV-2 3CL^pro; 35 nM 3CL^pro, 6 μM fluorogenic substrate, pH 7.0, read-out: IC50): 37.6 ± 2.8 µM
- IC50 (SARS-CoV-2 PL^pro; [6]): 14.7 ± 2.6 µM
